Measurements: patent US20240383886A1, “Protein Tyrosine Phosphatase Degraders and Methods of Use Thereof” (CALICO LIFE SCIENCES LLC, priority 2019, published 2024)

Key:
PTPN2 [1] = target: T1, PTPN2 (Homo sapiens, UniProt P17706); test: HiBiT-Degradation 293T.109 PTPN2 (Nano-Glo HiBiT Lytic Assay); format: cell-based; conditions: 293T.109 (HiBiT-PTPN2) cells, 24.0 hours
T1 construct: expressed in transfected cells; host or cells: 293T (293T.109 HiBiT-PTPN2 line; parental 293T WT from ATCC)
T1 sequence (P17706 1-415): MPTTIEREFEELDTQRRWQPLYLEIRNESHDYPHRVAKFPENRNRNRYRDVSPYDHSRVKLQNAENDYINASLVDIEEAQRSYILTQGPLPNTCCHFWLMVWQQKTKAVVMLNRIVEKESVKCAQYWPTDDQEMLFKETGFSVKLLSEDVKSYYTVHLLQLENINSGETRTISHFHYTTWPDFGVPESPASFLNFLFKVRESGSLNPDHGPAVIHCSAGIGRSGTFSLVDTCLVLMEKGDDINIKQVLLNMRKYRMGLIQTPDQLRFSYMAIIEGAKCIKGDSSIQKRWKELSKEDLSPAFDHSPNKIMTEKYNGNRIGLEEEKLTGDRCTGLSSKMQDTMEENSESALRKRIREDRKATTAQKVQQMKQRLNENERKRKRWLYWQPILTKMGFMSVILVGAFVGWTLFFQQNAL
Source text: Dulbecco's modified Eagle medium (DMEM) without phenol red and fetal bovine serum (FBS) were purchased from Gibco (Grand Island, NY, USA). Nano-Glo® HiBIT Lytic Assay System was purchased from Promega (Madison, WI, USA). 293T.109 (HiBiT-PTPN2) cell line was generated by ectopically expressing PTPN2 with N-terminal HiBiT fusion tag in 293T WT cell line purchased from ATCC (Manassas, VA, USA). Cell culture flasks and 384-well microplates were acquired from VWR (Radnor, PA, USA).
PTPN2 degradation was determined based on quantification of luminescent signal using Nano-Glo® HiBIT Lytic Assay kit. Test compounds were added to the 384-well plate from a top concentration of 10 μM with 11 points, half log titration in duplicates. 293T.109 cells were added into 384-well plates at a cell density of 5000 cells per well. The plates were kept at 37° C. with 5% CO2 for 24 hours. The cells treated in the absence of the test compound were the negative control and the cells without Nano-Glo® HiBiT Lytic reagent were the positive control. After 24-hour incubation, Nano-Glo® HiBIT Lytic Assay reagents were added to the cells. Luminescence was acquired on EnVision™ Multilabel Reader (PerkinElmer, Santa Clara, CA, USA).

PTPN2 [2] = test: HiBiT-Degradation B16F10.4 PTPN2; format: cell-based; conditions: B16F10.4 cells, 24.0 hours

Compound	DC50 (PTPN2 [1])	DC50 (PTPN2 [2])
Cn1c(=O)n(C2CCC(=O)NC2=O)c2ccc([C@H]3CC[C@@H](CNC(=O)c4ccc5c(F)c(N6CC(=O)NS6(=O)=O)c(O)cc5c4)CC3)cc21 (single isomer, unassigned) [Example 75]	50 to 200 nM	50 to 200 nM
Cn1c(=O)n(C2CCC(=O)NC2=O)c2ccc([C@H]3CC[C@H](CNC(=O)c4ccc5c(F)c(N6CC(=O)NS6(=O)=O)c(O)cc5c4)CC3)cc21 (single isomer, unassigned) [Example 76]	10 to 50 nM	50 to 200 nM
Cn1c(=O)n(C2CCC(=O)NC2=O)c2ccc([C@H]3CC[C@@H](CC(=O)Nc4ccc5c(F)c(N6CC(=O)NS6(=O)=O)c(O)cc5c4)CC3)cc21 (single isomer, unassigned) [Example 81a, N-(6-(1,1-dioxido-4-oxo-1,2,5-thiadiazolidin-2-yl)-5-fluoro-7-hydroxynaphthalen-2-yl)-2-((1s,4s)-4-(1-(2,6-dioxopiperidin-3-yl)-3-methyl-2-oxo-2,3-dihydro-1H-benzo[d]imidazol-5-yl)cyclohexyl)acetamide]	10 to 50 nM	10 to 50 nM
Cn1c(=O)n(C2CCC(=O)NC2=O)c2ccc([C@H]3CC[C@H](CC(=O)Nc4ccc5c(F)c(N6CC(=O)NS6(=O)=O)c(O)cc5c4)CC3)cc21 (single isomer, unassigned) [Example 81b, N-(6-(1,1-dioxido-4-oxo-1,2,5-thiadiazolidin-2-yl)-5-fluoro-7-hydroxynaphthalen-2-yl)-2-((1r,4r)-4-(1-(2,6-dioxopiperidin-3-yl)-3-methyl-2-oxo-2,3-dihydro-1H-benzo[d]imidazol-5-yl)cyclohexyl)acetamide]	10 to 50 nM	200 to 1000 nM
Cn1nc(C2CCC(=O)NC2=O)c2ccc([C@H]3CC[C@H](CC(=O)Nc4ccc5c(F)c(N6CC(=O)NS6(=O)=O)c(O)cc5c4)CC3)cc21 (single isomer, unassigned) [Example 179, N-(6-(1,1-dioxido-4-oxo-1,2,5-thiadiazolidin-2-yl)-5-fluoro-7-hydroxynaphthalen-2-yl)-2-((trans)-4-(3-(2,6-dioxopiperidin-3-yl)-1-methyl-1H-indazol-6-yl)cyclohexyl)acetamide]	10 to 50 nM	200 to 1000 nM
O=C1CCC(N2C(=O)c3cccc(NCC(=O)N4CCC(C(=O)NCCOc5ccc6cc(O)c(N7CC(=O)NS7(=O)=O)c(F)c6c5)CC4)c3C2=O)C(=O)N1 (centres unmarked) [Example 1, N-(2-((7-(1,1-dioxido-4-oxo-1,2,5-thiadiazolidin-2-yl)-8-fluoro-6-hydroxynaphthalen-2-yl)oxy)ethyl)-1-((2-(2,6-dioxopiperidin-3-yl)-1,3-dioxoisoindolin-4-yl)glycyl)piperidine-4-carboxamide]	200 to 1000 nM	≥ 1000 nM
O=C1CCC(N2Cc3c(NCC(=O)N4CCC(C(=O)NCCOc5ccc6cc(O)c(N7CC(=O)NS7(=O)=O)c(F)c6c5)CC4)cccc3C2=O)C(=O)N1 (centres unmarked) [Example 2, N-(2-((7-(1,1-dioxido-4-oxo-1,2,5-thiadiazolidin-2-yl)-8-fluoro-6-hydroxynaphthalen-2-yl)oxy)ethyl)-1-((2-(2,6-dioxopiperidin-3-yl)-1-oxoisoindolin-4-yl)glycyl)piperidine-4-carboxamide]	200 to 1000 nM	200 to 1000 nM
O=C1CCC(N2Cc3c(OCC(=O)N4CCC(C(=O)NCCOc5ccc6cc(O)c(N7CC(=O)NS7(=O)=O)c(F)c6c5)CC4)cccc3C2=O)C(=O)N1 (centres unmarked) [Example 3, 1-[2-[2-(2,6-dioxo-3-piperidyl)-1-oxo-isoindolin-4-yl]oxyacetyl]-N-[2-[[8-fluoro-6-hydroxy-7-(1,1,4-trioxo-1,2,5-thiadiazolidin-2-yl)-2-naphthyl]oxy]ethyl]piperidine-4-carboxamide]	50 to 200 nM	200 to 1000 nM
Cn1c(=O)n(C2CCC(=O)NC2=O)c2ccc(C3CCN(CC(=O)NCCOc4ccc5cc(O)c(N6CC(=O)NS6(=O)=O)c(F)c5c4)CC3)cc21 (centres unmarked) [Example 4, N-(2-((7-(1,1-dioxido-4-oxo-1,2,5-thiadiazolidin-2-yl)-8-fluoro-6-hydroxynaphthalen-2-yl)oxy)ethyl)-2-(4-(1-(2,6-dioxopiperidin-3-yl)-3-methyl-2-oxo-2,3-dihydro-1H-benzo[d]imidazol-5-yl)piperidin-1-yl)acetamide]	50 to 200 nM	≥ 1000 nM
O=C(CN1CCC(c2ccc3c(c2)oc(=O)n3C2CCC(=O)NC2=O)CC1)NCCOc1ccc2cc(O)c(N3CC(=O)NS3(=O)=O)c(F)c2c1 (centres unmarked) [Example 5, 2-[4-[3-(2,6-dioxo-3-piperidyl)-2-oxo-1,3-benzoxazol-6-yl]-1-piperidyl]-N-[2-[[8-fluoro-6-hydroxy-7-(1,1,4-trioxo-1,2,5-thiadiazolidin-2-yl)-2-naphthyl]oxy]ethyl]acetamide]	50 to 200 nM	≥ 1000 nM
Cn1c(=O)n(C2CCC(=O)NC2=O)c2ccc(C3CCN(CCC(=O)NCCOc4ccc5cc(O)c(N6CC(=O)NS6(=O)=O)c(F)c5c4)CC3)cc21 (centres unmarked) [Example 6, N-(2-((7-(1,1-dioxido-4-oxo-1,2,5-thiadiazolidin-2-yl)-8-fluoro-6-hydroxynaphthalen-2-yl)oxy)ethyl)-3-(4-(1-(2,6-dioxopiperidin-3-yl)-3-methyl-2-oxo-2,3-dihydro-1H-benzo[d]imidazol-5-yl)piperidin-1-yl)propanamide]	50 to 200 nM	≥ 1000 nM
O=C(CN1CCC(c2ccc3c4c(cccc24)C(=O)N3C2CCC(=O)NC2=O)CC1)NCCOc1ccc2cc(O)c(N3CC(=O)NS3(=O)=O)c(F)c2c1 (centres unmarked) [Example 7, N-(2-((7-(1,1-dioxido-4-oxo-1,2,5-thiadiazolidin-2-yl)-8-fluoro-6-hydroxynaphthalen-2-yl)oxy)ethyl)-2-(4-(1-(2,6-dioxopiperidin-3-yl)-2-oxo-1,2-dihydrobenzo[cd]indol-6-yl)piperidin-1-yl)acetamide]	10 to 50 nM	10 to 50 nM
Cn1nc(C2CCC(=O)NC2=O)c2ccc(C3CCN(CC(=O)NCCOc4ccc5cc(O)c(N6CC(=O)NS6(=O)=O)c(F)c5c4)CC3)cc21 (centres unmarked) [Example 8, 2-[4-[3-(2,6-dioxo-3-piperidyl)-1-methyl-indazol-6-yl]-1-piperidyl]-N-[2-[[8-fluoro-6-hydroxy-7-(1,1,4-trioxo-1,2,5-thiadiazolidin-2-yl)-2-naphthyl]oxy]ethyl]acetamide]	10 to 50 nM	50 to 200 nM
Cn1c(=O)n(C2CCC(=O)NC2=O)c2cccc(OC3CCN(CC(=O)NCCOc4ccc5cc(O)c(N6CC(=O)NS6(=O)=O)c(F)c5c4)CC3)c21 (centres unmarked) [Example 9, 2-[4-[1-(2,6-dioxo-3-piperidyl)-3-methyl-2-oxo-benzimidazol-4-yl]oxy-1-piperidyl]-N-[2-[[8-fluoro-6-hydroxy-7-(1,1,4-trioxo-1,2,5-thiadiazolidin-2-yl)-2-naphthyl]oxy]ethyl]acetamide]	50 to 200 nM	200 to 1000 nM
O=C(CN1CCC(c2ccc(NC3CCC(=O)NC3=O)cc2F)CC1)NCCOc1ccc2cc(O)c(N3CC(=O)NS3(=O)=O)c(F)c2c1 (centres unmarked) [Example 10, 2-[4-[4-[(2,6-dioxo-3-piperidyl)amino]-2-fluoro-phenyl]-1-piperidyl]-N-[2-[[8-fluoro-6-hydroxy-7-(1,1,4-trioxo-1,2,5-thiadiazolidin-2-yl)-2-naphthyl]oxy]ethyl]acetamide]	50 to 200 nM	≥ 1000 nM
O=C(C=Cc1ccc2cc(O)c(N3CC(=O)NS3(=O)=O)c(F)c2c1)NC1CCN(C(=O)COc2cccc3c2CN(C2CCC(=O)NC2=O)C3=O)CC1 (centres unmarked) [Example 11, 3-(7-(1,1-dioxido-4-oxo-1,2,5-thiadiazolidin-2-yl)-8-fluoro-6-hydroxynaphthalen-2-yl)-N-(1-(2-((2-(2,6-dioxopiperidin-3-yl)-1-oxoisoindolin-4-yl)oxy)acetyl)piperidin-4-yl)acrylamide]	200 to 1000 nM	200 to 1000 nM
O=C(CCCCCn1cc(CNc2cccc3c2C(=O)N(C2CCC(=O)NC2=O)C3=O)nn1)NCCOc1ccc2cc(O)c(N3CC(=O)NS3(=O)=O)c(Cl)c2c1 (centres unmarked) [Example 49]	≥ 1000 nM	–
O=C(CCOCCn1cc(CNc2cccc3c2C(=O)N(C2CCC(=O)NC2=O)C3=O)nn1)NCCOc1ccc2cc(O)c(N3CC(=O)NS3(=O)=O)cc2c1 (centres unmarked) [Example 50]	≥ 1000 nM	–
O=C(CCCCCn1cc(CNc2cccc3c2C(=O)N(C2CCC(=O)NC2=O)C3=O)nn1)NCCOc1ccc2cc(O)c(N3CC(=O)NS3(=O)=O)cc2c1 (centres unmarked) [Example 51]	≥ 1000 nM	–
